Measurements as given in ChEMBL document CHEMBL5665443, “Enzyme Inhibitor Single Concentration assay results for EUbOPEN Chemogenomics Library” (2024).

How the values were obtained:
Settings in all cases: Compound Concentration 10.0 uM, Hit No
[1] = target: Methyl-CpG-binding domain protein 4 (Homo sapiens) (UniProt O95243);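 also: MBD4 activity read as fluorescence at 594 nm from cleavage and release of a quenched duplex DNA oligonucleotide, with APE1 coupled to incise the strand and raise turnover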
Chain of Methyl-CpG-binding domain protein 4 (Homo sapiens) (O95243 whole entry, the tested form may be a part): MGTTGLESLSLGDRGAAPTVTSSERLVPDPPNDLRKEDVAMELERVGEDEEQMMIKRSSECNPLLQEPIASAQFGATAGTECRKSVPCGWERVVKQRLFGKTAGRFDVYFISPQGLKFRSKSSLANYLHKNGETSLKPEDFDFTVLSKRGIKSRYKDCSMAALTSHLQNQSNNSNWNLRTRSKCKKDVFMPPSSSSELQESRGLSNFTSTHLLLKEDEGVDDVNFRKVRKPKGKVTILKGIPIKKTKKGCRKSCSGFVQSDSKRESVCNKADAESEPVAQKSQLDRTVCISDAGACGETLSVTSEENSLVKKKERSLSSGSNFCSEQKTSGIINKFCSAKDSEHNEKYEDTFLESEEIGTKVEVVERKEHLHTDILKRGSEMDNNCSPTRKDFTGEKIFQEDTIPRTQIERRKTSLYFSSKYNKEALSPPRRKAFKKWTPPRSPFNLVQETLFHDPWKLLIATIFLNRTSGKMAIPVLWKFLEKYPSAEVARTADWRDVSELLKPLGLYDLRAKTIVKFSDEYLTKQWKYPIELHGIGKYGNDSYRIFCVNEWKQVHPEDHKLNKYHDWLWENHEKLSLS
Description: Inhibition of MBD4 by quantifying inhibition of MBD4-mediated cleavage and dissociation of quenched duplex DNA oligonucleotides, measured as fluorescence at 594 nm. To generate a functional strand incision and increase turn-over this assay is coupled to APE1.

[2] = target: T1, Endonuclease III-like protein 1 (Homo sapiens) (UniProt P78549);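 also: enzyme assay tracking NTHL1 cutting and release of a quenched double-stranded DNA oligo substrate, read as fluorescence at 594 nm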
T1 sequence (whole entry): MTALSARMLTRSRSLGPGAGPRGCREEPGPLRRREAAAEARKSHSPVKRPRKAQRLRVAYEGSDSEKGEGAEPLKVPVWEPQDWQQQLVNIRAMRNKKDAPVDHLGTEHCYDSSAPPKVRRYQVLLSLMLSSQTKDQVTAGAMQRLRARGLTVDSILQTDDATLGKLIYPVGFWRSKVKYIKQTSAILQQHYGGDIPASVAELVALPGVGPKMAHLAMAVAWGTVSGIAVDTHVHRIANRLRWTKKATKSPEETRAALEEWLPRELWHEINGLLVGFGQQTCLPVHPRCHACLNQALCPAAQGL
Description: Inhibition of NTHL1 by quantifying inhibition of NTHL1-mediated cleavage and dissociation of quenched duplex DNA oligonucleotides, measured as fluorescence at 594 nm.

[3] = target: T2, Adenine DNA glycosylase (Homo sapiens) (UniProt Q9UIF7);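 also: human MUTYH activity read as 594 nm fluorescence from cleavage and release of a quenched DNA duplex, coupled with APE1 for strand incision, lower signal meaning inhibition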
T2 sequence (whole entry): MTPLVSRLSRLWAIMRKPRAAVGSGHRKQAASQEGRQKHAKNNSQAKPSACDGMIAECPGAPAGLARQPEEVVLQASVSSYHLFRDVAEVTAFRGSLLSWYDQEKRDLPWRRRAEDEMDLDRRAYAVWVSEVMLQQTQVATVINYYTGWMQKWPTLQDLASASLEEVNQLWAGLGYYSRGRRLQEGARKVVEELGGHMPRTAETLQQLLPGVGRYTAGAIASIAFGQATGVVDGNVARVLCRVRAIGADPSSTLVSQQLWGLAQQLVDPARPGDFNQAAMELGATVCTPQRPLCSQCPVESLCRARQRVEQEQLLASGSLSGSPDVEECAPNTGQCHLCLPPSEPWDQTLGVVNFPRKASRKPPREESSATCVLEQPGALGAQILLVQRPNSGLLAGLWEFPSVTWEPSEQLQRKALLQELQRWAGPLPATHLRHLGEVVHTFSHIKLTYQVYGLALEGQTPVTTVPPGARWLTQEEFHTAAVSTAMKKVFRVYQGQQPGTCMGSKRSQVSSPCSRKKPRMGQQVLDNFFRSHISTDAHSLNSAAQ
Description: Inhibition of MUTYH by quantifying inhibition of MUTYH-mediated cleavage and dissociation of quenched duplex DNA oligonucleotides, measured as fluorescence at 594 nm. To generate a functional strand incision and increase turn-over this assay is coupled to APE1.

[4] = target: G/T mismatch-specific thymine DNA glycosylase (Homo sapiens) (UniProt Q13569);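 also: human TDG cleavage of quenched duplex DNA oligonucleotides coupled to APE1, strand release read as fluorescence at 594 nm, inhibition of TDG activity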
Chain of G/T mismatch-specific thymine DNA glycosylase (Homo sapiens) (Q13569 whole entry): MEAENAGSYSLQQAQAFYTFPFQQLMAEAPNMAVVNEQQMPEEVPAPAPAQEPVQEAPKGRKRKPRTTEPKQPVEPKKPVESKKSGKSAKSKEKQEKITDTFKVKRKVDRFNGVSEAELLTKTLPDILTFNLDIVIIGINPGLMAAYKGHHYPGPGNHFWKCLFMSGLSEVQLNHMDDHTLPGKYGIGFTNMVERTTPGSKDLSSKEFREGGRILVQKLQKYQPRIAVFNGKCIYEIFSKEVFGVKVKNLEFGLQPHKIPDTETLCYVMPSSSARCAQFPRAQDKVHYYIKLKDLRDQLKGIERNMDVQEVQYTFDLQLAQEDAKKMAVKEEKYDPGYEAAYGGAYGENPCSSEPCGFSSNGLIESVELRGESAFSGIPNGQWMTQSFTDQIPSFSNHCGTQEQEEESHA
Description: Inhibition of TDG by quantifying inhibition of TDG-mediated cleavage and dissociation of quenched duplex DNA oligonucleotides, measured as fluorescence at 594 nm. To generate a functional strand incision and increase turn-over this assay is coupled to APE1.

[5] = target: DNA-3-methyladenine glycosylase (Homo sapiens) (UniProt P29372);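 also: enzyme assay where MPG cuts a quenched duplex DNA oligonucleotide probe, paired with APE1 for strand incision and turnover, read as fluorescence at 594 nm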
Chain of DNA-3-methyladenine glycosylase (Homo sapiens) (P29372 whole entry): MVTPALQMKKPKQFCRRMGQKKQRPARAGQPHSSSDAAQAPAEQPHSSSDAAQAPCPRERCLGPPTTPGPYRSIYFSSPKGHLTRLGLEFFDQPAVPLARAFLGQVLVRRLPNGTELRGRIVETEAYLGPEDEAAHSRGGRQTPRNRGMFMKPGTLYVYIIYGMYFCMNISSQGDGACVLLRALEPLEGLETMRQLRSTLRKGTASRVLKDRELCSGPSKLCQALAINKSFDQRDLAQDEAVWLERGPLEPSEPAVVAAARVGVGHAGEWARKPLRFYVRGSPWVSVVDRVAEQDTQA
Description: Inhibition of MPG by quantifying inhibition of MPG-mediated cleavage and dissociation of quenched duplex DNA oligonucleotides, measured as fluorescence at 594 nm. To generate a functional strand incision and increase turn-over this assay is coupled to APE1.

[6] = target: T3, Endonuclease 8-like 2 (Homo sapiens) (UniProt Q969S2);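 also: fluorescence at 594 nm reports NEIL2 cutting and release of a quenched double-stranded DNA oligo substrate, reduced signal read as inhibition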
T3 sequence (whole entry): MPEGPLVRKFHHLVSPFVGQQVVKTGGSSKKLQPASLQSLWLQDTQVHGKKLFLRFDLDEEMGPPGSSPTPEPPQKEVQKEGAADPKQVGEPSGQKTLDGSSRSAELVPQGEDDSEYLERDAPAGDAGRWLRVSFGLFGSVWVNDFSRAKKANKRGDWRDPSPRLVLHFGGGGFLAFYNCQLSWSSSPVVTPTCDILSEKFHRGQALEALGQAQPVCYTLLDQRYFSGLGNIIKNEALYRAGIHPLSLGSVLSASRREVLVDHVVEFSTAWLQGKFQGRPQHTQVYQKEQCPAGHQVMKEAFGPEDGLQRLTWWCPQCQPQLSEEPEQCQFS
Description: Inhibition of NEIL2 by quantifying inhibition of NEIL2-mediated cleavage and dissociation of quenched duplex DNA oligonucleotides, measured as fluorescence at 594 nm.

[7] = target: Endonuclease 8-like 1 (Homo sapiens) (UniProt Q96FI4);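 also: fluorescence at 594 nm from quenched duplex DNA oligonucleotides released by NEIL1 cleavage and strand separation, reported as reduction of this enzyme activity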
Chain of Endonuclease 8-like 1 (Homo sapiens) (Q96FI4 whole entry): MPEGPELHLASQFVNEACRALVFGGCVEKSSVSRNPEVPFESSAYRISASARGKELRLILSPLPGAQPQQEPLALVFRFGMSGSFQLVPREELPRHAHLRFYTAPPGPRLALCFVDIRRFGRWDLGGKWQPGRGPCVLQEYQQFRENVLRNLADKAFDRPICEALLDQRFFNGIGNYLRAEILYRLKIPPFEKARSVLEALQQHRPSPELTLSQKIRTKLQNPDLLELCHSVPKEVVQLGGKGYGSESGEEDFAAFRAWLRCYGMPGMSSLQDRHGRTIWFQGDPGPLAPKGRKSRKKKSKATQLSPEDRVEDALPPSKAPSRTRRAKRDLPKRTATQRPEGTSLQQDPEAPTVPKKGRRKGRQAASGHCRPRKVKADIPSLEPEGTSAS
Description: Inhibition of NEIL1 by quantifying inhibition of NEIL1-mediated cleavage and dissociation of quenched duplex DNA oligonucleotides, measured as fluorescence at 594 nm.

[8] = target: Uracil-DNA glycosylase (Homo sapiens) (UniProt P13051);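 also: UNG excision on a quenched double-stranded DNA oligo probe, with APE1 added for strand incision and turnover, read as fluorescence at 594 nm as strands separate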
Chain of Uracil-DNA glycosylase (Homo sapiens) (P13051 whole entry): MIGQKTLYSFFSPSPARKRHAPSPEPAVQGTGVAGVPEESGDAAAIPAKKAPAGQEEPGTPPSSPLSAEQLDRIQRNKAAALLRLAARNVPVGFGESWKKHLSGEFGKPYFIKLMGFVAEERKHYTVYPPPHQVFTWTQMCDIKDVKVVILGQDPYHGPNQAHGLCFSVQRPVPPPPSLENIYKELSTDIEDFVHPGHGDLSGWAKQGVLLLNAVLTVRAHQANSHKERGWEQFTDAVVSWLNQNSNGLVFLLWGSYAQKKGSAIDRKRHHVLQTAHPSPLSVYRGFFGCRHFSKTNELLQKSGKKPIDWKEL
Description: Inhibition of UNG by quantifying inhibition of UNG-mediated cleavage and dissociation of quenched duplex DNA oligonucleotides, measured as fluorescence at 594 nm. To generate a functional strand incision and increase turn-over this assay is coupled to APE1.

[9] = target: N-glycosylase/DNA lyase (Homo sapiens) (UniProt O15527);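 also: OGG1 cleavage of a quenched duplex DNA oligonucleotide, coupled to APE1 for strand incision, read as fluorescence at 594 nm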
Chain of N-glycosylase/DNA lyase (Homo sapiens) (O15527 whole entry): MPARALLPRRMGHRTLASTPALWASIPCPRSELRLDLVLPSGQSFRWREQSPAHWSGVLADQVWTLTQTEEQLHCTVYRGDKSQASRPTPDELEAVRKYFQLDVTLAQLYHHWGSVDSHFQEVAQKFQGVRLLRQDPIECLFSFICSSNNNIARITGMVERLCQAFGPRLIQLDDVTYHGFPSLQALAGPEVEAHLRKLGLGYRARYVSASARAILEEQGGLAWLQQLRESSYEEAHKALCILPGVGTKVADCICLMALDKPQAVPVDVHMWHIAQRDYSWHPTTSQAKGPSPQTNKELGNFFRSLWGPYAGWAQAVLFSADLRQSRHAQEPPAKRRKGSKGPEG
Description: Inhibition of OGG1 by quantifying inhibition of OGG1-mediated cleavage and dissociation of quenched duplex DNA oligonucleotides, measured as fluorescence at 594 nm. To generate a functional strand incision and increase turn-over this assay is coupled to APE1.

[10] = target: T4, Single-strand selective monofunctional uracil DNA glycosylase (Homo sapiens) (UniProt Q53HV7);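 also: enzymatic SMUG1 assay coupled with APE1, reading fluorescence at 594 nm released when a quenched double-stranded DNA oligonucleotide substrate is cleaved and separated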
T4 sequence (whole entry): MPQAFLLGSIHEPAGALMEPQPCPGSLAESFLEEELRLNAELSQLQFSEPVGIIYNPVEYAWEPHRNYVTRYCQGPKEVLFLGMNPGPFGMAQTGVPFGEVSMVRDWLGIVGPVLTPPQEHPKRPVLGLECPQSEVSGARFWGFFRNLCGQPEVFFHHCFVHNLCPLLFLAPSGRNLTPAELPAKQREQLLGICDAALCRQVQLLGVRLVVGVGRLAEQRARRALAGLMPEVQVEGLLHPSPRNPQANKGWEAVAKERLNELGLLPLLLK
Description: Inhibition of SMUG1 by quantifying inhibition of SMUG1-mediated cleavage and dissociation of quenched duplex DNA oligonucleotides, measured as fluorescence at 594 nm. To generate a functional strand incision and increase turn-over this assay is coupled to APE1.

| SMILES | inhibition [1] | inhibition [2] | inhibition [3] | inhibition [4] | inhibition [5] | inhibition [6] | inhibition [7] | inhibition [8] | inhibition [9] | inhibition [10] |
| --- | --- | --- | --- | --- | --- | --- | --- | --- | --- | --- |
| O=C(O)[C@H]1O[C@H](OP(=O)(O)OP(=O)(O)OC[C@H]2O[C@@H](n3ccc(=O)[nH]c3=O)[C@H](O)[C@@H]2O)[C@H](O)[C@@H](O)[C@@H]1O | 18.3% | 15.4% | 14.9% | 15.8% | 24.7% | -7.23% |  |  |  |  |
| Cc1ccccc1C(=O)Nc1ccc(C(=O)N2CCCC(N(C)C)c3ccccc32)cc1 (centres undefined) | 19.4% | 21.2% | 10.3% | 18.4% | 11.6% |  | 11.6% | -2.08% |  |  |
| CC1(C)Cc2c(CN3CCC4(CC3)CCN(C(=O)c3ccc(N)cn3)CC4)cccc2O1 | 21.4% | 8.82% | 2.36% | -2.08% | 8.62% | -6.46% | 7.27% |  |  |  |
| c1cnc2cc3c(cc2n1)[C@@H]1CNC[C@H]3C1 | 15.3% | 12.9% | 34.7% | 13.7% | 9.33% |  | 4.16% | -9.92% |  |  |
| CN1CC[C@@]23CCCC[C@@H]2[C@@H]1Cc1ccc(O)cc13 | 3.69% | 14.6% | -5.81% | -3.74% | -0.416% | -9.52% | -2.06% | -7.94% |  |  |
| CCCNC(=O)c1nnc2c(-c3c(F)cccc3OC)cccc2c1N | 26.8% | 27.8% | 24.9% | 24.5% | 12.4% | -2.64% | 10.5% | -1.98% |  |  |
| C[C@H]1CN(C[C@H](Cc2ccccc2)C(=O)NCC(=O)O)CC[C@@]1(C)c1cccc(O)c1 | 21.1% | 34.4% | 40.2% | 37.5% | 22.9% | -9.01% | -4.44% | -7.63% |  |  |
| CNC(=O)[C@H]1O[C@@H](n2cnc3c(NCc4cccc(I)c4)ncnc32)[C@H](O)[C@@H]1O | 10.4% | -2.73% | 14.2% | 6.72% | 2.83% | -8.76% | -7.1% | -5.89% |  |  |
| CC1(C)N=C(C2CCCCC2)c2ccc(C#N)cc2N(c2ccc(NCCNC3CCOCC3)cc2)C1=O | 10.6% | 19.6% | 1.14% | 5.19% | 7.31% | -3.41% | 4.75% |  |  |  |
| CCN(c1ccccc1)c1cc(NC)[n+](C)c(C)n1 | 25.3% | 30.3% | 7.99% | 7.48% | 1.67% | 4.75% | -3.4% | -8.21% |  |  |
| CCOC(=O)c1ncn2c1[C@@H]1CCCN1C(=O)c1cc(OC)ccc1-2 | 14.4% | -3.56% | -3.58% | -5.12% | -5.68% | -4.43% | -2.51% | -7.79% |  |  |
| C[C@H](C[C@H](N)C(=O)O)C(=O)O | 13.5% | -6.04% | 17% | 0.112% | 14.2% | 0.414% | -6.51% |  |  |  |
| C[C@H](NC(=O)[C@H](Cc1ccccc1)NC(=O)[C@H](CCC(N)=O)NC(=O)CNC(=O)[C@@H]1CCCN1C(=O)[C@H](Cc1ccccc1)NC(=O)[C@@H](N)Cc1ccc(O)cc1)C(=O)N[C@@H](Cc1ccccc1)C(=O)N[C@@H](CO)C(=O)O | 12.6% | 21.2% | 2.52% | 9.05% | 6.08% | 2.96% | 13.2% | -4.67% |  |  |
| C[C@@H](NC(=O)Cc1ccc(C2CC2)cc1)c1ccc(OCC(F)(F)F)cn1 | 4.9% | 11.3% | -6.51% | 4.49% | 10.8% | -6.21% | 0.602% | -2.14% |  |  |
| Fc1cccc(/C=N/N=C/c2cccc(F)c2)c1 | 4.13% | 15.4% | 1.53% | 5.75% | -2.88% | -1.37% | -5.18% | -6.06% |  |  |
| CC(C)c1ccc(CC(=O)N[C@H](C)c2ccc(OCC(F)(F)F)cn2)cc1 |  | 8% | -5.06% | -9.7% | 9.35% | -3.66% | 3.42% | -0.689% | -4.46% | 4.45% |
| O=C(Nc1cccc(C(F)(F)F)c1)c1cc(Cl)ccc1O |  | 5.52% | 0.595% | 4.24% | 23.5% | -5.45% | -4.58% | -2.86% | -6.43% | 0.608% |
| CC[C@H](NC(=O)c1c(C)c(-c2ccccc2)nc2ccccc12)c1ccccc1 |  | 9.25% | 0.0213% | -2.42% | 4.04% | -1.98% | -0.204% | -6.75% | -1.61% | -0.0333% |
| CCCCCCCC/C=C\CCCCCCCC(N)=O |  | 2.66% | 15.9% | 12.1% | 17.3% | 2.51% | 12.4% | -8.52% | 4.44% | -2.07% |
| COC[C@@H](c1ccc(C(F)(F)F)cc1)N1CCN(C2(C)CCN(C(=O)c3c(C)ncnc3C)CC2)C[C@@H]1C | 11.1% | 16.2% | 7.5% | -1.76% | -7.67% |  | -4.58% | -3.97% |  |  |
| CN1CCN(Cc2ccc(-c3cccc(C(=O)Nc4ccccc4CC(=O)O)c3)cc2)CC1 | 18.1% | -1.91% | 17.7% | 14.1% | 12.7% | -2.64% | 17.2% | -2.65% |  |  |
| CN(Cc1cccc(F)c1CNc1cc(F)c(S(=O)(=O)Nc2cscn2)c(F)c1)C(C)(C)C | 28.6% | 18.7% | 40.5% | 4.92% | 20.1% | -2.39% | 2.08% | -9.64% |  |  |
| Nc1nc(CC(=O)Nc2ccc(CCNC[C@H](O)c3ccccc3)cc2)cs1 | 6.31% | 22% | 7.21% | 2.71% | 5.02% | -2.64% | 3.71% | -1.78% |  |  |
| Cc1cc(C)c(NC(=O)C2CC3CCC2C3)c(C)c1 (centres undefined) | 26.4% | 6.35% | 27.8% | 5.7% | 7.56% |  | -1.18% | -9.01% |  |  |
| O=C1c2ccccc2C(Cc2ccncc2)(Cc2ccncc2)c2ccccc21 | 23.6% | 20.4% | 8.2% | 21.3% | 12.1% | -2.64% | 6.83% |  |  |  |
